This note sets out measurements from ChEMBL document CHEMBL4311972, “Discovery of a benzothiophene-flavonol halting miltefosine and antimonial drug resistance in Leishmania parasites through the application of medicinal chemistry, screening and genomics” (Eur J Med Chem, 2019).

“And” between values parts separate entries of the source, which are not always exact repeats. Equal values may be shown once. The source made the active and inactive calls. The rule behind the calls is not given here.

Data set [1] in a line: Chemical stability of compound in PBS assessed as decrease in absorbance at 20 uM at pH 8 measured after 2 mins nitrogen bubbling by UV-vis spectrophotometry analysis. Particulars: read-out: Drug degradation. The format is physicochemical.
Data set [2] can be described thus: Cytotoxicity against human THP1 cells by MTT assay. Format: cell-based, THP-1. (In general: Formazan colour is commonly taken as a measure of viable cells.)
In data set [3] the test system is Leishmania donovani. Briefly: Antileishmanial activity against Leishmania donovani 1SR promastigotes assessed as parasite growth at IC50 concentration incubated with compound for 3 days under selective pressure and selection cycle repeated 10 times for total of 33 days and measured at 3 to 33 days of selection relative to control. The format is functional.
Data set [4] can be described thus: Toxicity in Syrian hamster infected with Leishmania infantum BCN150 promastigotes assessed as adverse effects at 20 mg/kg/every 12 hrs, po for 10 days formulated with 8% v/v DMSO measured daily. The format is organism-based, Mesocricetus auratus. Particulars: in vivo.
Data set [5] is described as follows: Toxicity in Syrian hamster infected with Leishmania infantum BCN150 promastigotes assessed as spleen weight at 40 mg/kg/day, po for 10 days formulated with 50% v/v cyclodextrin (reference value: 0.191 +/- 0.061 g). The format is organism-based, Mesocricetus auratus. Particulars: in vivo, 240 h.
The nature of data set [6]: Toxicity in Syrian hamster infected with Leishmania infantum BCN150 promastigotes assessed as adverse effects at 20 mg/kg/every 12 hrs, po for 10 days formulated with 50% v/v cyclodextrin measured daily. Particulars: in vivo. The format is organism-based, Mesocricetus auratus.
Data set [7] is described as follows: Chemical stability of compound in DMSO at 60 uM assessed as drug degradation measured at room temperature in dark after 1 day by UV-vis spectrophotometric analysis. The format is physicochemical. Particulars: read-out: Drug degradation.
A short description of data set [8]: Toxicity in Syrian hamster infected with Leishmania infantum BCN150 promastigotes assessed as liver weight at 40 mg/kg/day, po for 10 days formulated with 50% v/v cyclodextrin (reference value: 5.892 +/- 0.446 g). The format is organism-based, Mesocricetus auratus. Particulars: in vivo, 240 h.
Data set [9] in a line: Selectivity index, ratio of CC50 for human THP1 cells to EC50 for Trypanosoma brucei bloodstream form. Format: toxicity. Particulars: read-out: Ratio CC50/EC50.
Data set [10] concerns Leishmania infantum. Put plainly: Antileishmanial activity against Leishmania infantum amastigotes infected in Syrian hamster assessed as reduction in parasite load at 40 mg/kg/day, po for 10 days formulated with 8% v/v DMSO relative to control. The format is functional. Particulars: 240 h.
A short description of data set [11]: Binding affinity to trypsin in bovine pancreas in phosphate buffer assessed as increase in emission intensity at 530 nm at 5 uM measured at pH 8 by fluorescence emission spectrum analysis. The format is ADME, Bos taurus. Particulars: cattle.
Data set [12] can be described thus: Toxicity in Syrian hamster infected with Leishmania infantum BCN150 promastigotes assessed as liver weight at 40 mg/kg/day, po for 10 days formulated with 30% v/v cyclodextrin (reference value: 5.102 +/- 0.729 g). Format: organism-based, Mesocricetus auratus. Particulars: in vivo, 240 h.
The target of data set [13] is T1, Beta-casein (Bos taurus, UniProt P02666).
T1 sequence (P02666 whole entry): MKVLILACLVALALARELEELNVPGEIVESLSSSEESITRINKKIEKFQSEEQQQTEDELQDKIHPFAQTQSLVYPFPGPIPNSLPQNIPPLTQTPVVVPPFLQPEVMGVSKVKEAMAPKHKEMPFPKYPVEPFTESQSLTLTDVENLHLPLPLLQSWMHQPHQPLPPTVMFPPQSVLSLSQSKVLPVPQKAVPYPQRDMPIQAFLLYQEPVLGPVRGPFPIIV
Briefly: Binding affinity to bovine milk beta-casein in phosphate buffer assessed as compound lifetime at 530 nm at 5 uM measured at pH 8 by fluorescence emission spectrum analysis. Particulars: cattle. Format: ADME.

The next data set deals with WI-38. Briefly: Cytostatic activity against human WI38 cells assessed as reduction in cell growth incubated for 48 hrs by Celltiter-Glo luminescence assay. The format is cell-based. Conditions: wi-38, 48 h.
Data set [14] deals with Leishmania infantum. Briefly: Antileishmanial activity against Leishmania infantum amastigotes infected in Syrian hamster assessed as parasite load within liver at 40 mg/kg/day, po for 10 days formulated with 50% v/v cyclodextrin (reference value: 5000000.000 +/- 1673320.053/g). Format: functional.
Data set [15] in a line: Cmax in BALB/c mouse at 1 mg/kg, iv measured upto 72 hrs by snapshot method. Format: ADME, organism-based. Set-up: dose 1 mg/kg, route intravenous. Particulars: in vivo.
Data set [16] can be described thus: Toxicity in Syrian hamster infected with Leishmania infantum BCN150 promastigotes assessed as effect on ALT level at 40 mg/kg/day, po for 10 days formulated with 30 to 50% v/v cyclodextrin measured after the last treatment. Conditions: in vivo, 240 h. The format is organism-based, Mesocricetus auratus.
Data set [17] can be described thus: Toxicity in Syrian hamster infected with Leishmania infantum BCN150 promastigotes assessed as effect on alkaline phosphatase level at 40 mg/kg/day, po for 10 days formulated with 30 to 50% v/v cyclodextrin measured after the last treatment. The format is organism-based, Mesocricetus auratus. Conditions: in vivo, 240 h.
Data set [18] can be described thus: Toxicity in Syrian hamster infected with Leishmania infantum BCN150 promastigotes assessed as spleen lesions at 40 mg/kg/day, po for 10 days formulated with 30 to 50% v/v cyclodextrin measured under necropsy. The format is organism-based, Mesocricetus auratus. Particulars: in vivo, 240 h.
For data set [19], the system named is Leishmania donovani. Put plainly: Antileishmanial activity against Leishmania donovani BPK091 promastigotes transfected with Leishmania donovani BPK190 genomic cosmid DNA assessed as decrease in parasite growth at IC75 concentration incubated for 3 days under selective pressure and selection cycle repeated for 25 passages and measured at 43 to 78 days of selection. The format is functional, organism-based.

For data set [20], the system named is Leishmania infantum. Briefly: Antileishmanial activity against Leishmania infantum amastigotes infected in Syrian hamster assessed as parasite load within spleen at 40 mg/kg/day, po for 10 days formulated with 50% v/v cyclodextrin (reference value: 8508698.676 +/- 2835609.487/g). The format is functional.
Data set [21] can be described thus: Toxicity in Syrian hamster infected with Leishmania infantum BCN150 promastigotes assessed as liver lesions at 40 mg/kg/day, po for 10 days formulated with 30 to 50% v/v cyclodextrin measured under necropsy. Format: organism-based, Mesocricetus auratus. Particulars: in vivo, 240 h.
In data set [22] the target is T1, Beta-casein. Briefly: Binding affinity to bovine milk beta-casein in phosphate buffer assessed as increase in emission intensity at 530 nm at 5 uM measured at pH 8 by fluorescence emission spectrum analysis. The format is ADME. Particulars: cattle.
A short description of data set [23]: Stability of the compound in phosphate buffer assessed as compound abundance at 450 nm at 5 uM measured at pH 8 by fluorescence emission spectrum analysis. Format: physicochemical. Conditions: read-out: Stability.
Data set [24] is described as follows: Toxicity in Syrian hamster infected with Leishmania infantum BCN150 promastigotes assessed as effect on plasma urea level at 40 mg/kg/day, po for 10 days formulated with 30 to 50% v/v cyclodextrin measured after the last treatment. Format: organism-based, Mesocricetus auratus. Particulars: in vivo, 240 h.
Data set [25] in a line: Chemical stability of compound in PBS assessed as decrease in absorbance at 60 uM at pH 7 to 8 and 25 degC measured within 50 mins under dark conditions by UV-vis spectrophotometry analysis. Particulars: read-out: Drug degradation. The format is physicochemical.
Data set [26] can be described thus: Cmax in BALB/c mouse at 20 mg/kg, po measured upto 72 hrs by snapshot method. Particulars: in vivo. The format is ADME, organism-based. Set-up: dose 20 mg/kg, route oral.
Data set [27] in a line: Toxicity in Syrian hamster infected with Leishmania infantum BCN150 promastigotes assessed as liver lesions at 20 mg/kg/day, po for 10 days. Format: organism-based, Mesocricetus auratus. Conditions: in vivo, 240 h.
Data set [28] in a line: Toxicity in Syrian hamster infected with Leishmania infantum BCN150 promastigotes assessed as liver weight at 20 mg/kg/day, po for 10 days (reference value: 5.874 +/- 0.414 g). The format is organism-based, Mesocricetus auratus. Conditions: in vivo, 240 h.
Data set [29] relates to Leishmania infantum. Put plainly: Anti-leishmanial activity against Leishmania infantum BCN150 promastigotes infected in Syrian hamster assessed as decrease in anti-leishmanial IgG level at 20 mg/kg/day, po for 10 days by ELISA. The format is functional, organism-based.
The nature of data set [30]: Toxicity in Syrian hamster infected with Leishmania infantum BCN150 promastigotes assessed as effect on ALT level at 20 mg/kg/day, po for 10 days measured after the last treatment. The format is organism-based, Mesocricetus auratus. Particulars: in vivo, 240 h.

Broadly, the CC50 is the concentration that lowers cell viability or growth by half. High values mean better tolerance by the cells, low ones harm at low concentration. By inhibition in vivo is commonly meant the percentage by which the read-out fell short of the control. As a reminder, the Cmax is the maximum level reached in the sampled fluid or tissue. `COc1ccc2oc(-c3csc4ccccc34)c(O)c(=O)c2c1`: the degraded at 2 min, 20 µM in [1] is above 90%. Moreover, the CC50 in [2] was in the range of 25 to 50 µM. The Activity in the data set with Leishmania donovani [3] is on record as below 50%; in data set [4], “Non-Toxic”; in [5], 0.191 g; in [6] it was “Non-Toxic”; in [8], 5.522 g; in data set [11], “Active”. Further, the Activity is 5.448 g in [12]; “Toxic” in the data set with WI-38; 4000000 g⁻¹ in the data set on Leishmania infantum [14]; “Non-Toxic” in data set [16]; “Non-Toxic” in data set [17]; “Non-Toxic” in [18]. Also, the Activity was 5465832.19 g⁻¹ in the data set with Leishmania infantum [20], “Non-Toxic” in data set [21], “Active” on Beta-casein [22] and “Non-Toxic” in [24]. Further, the degraded at 24 h, 60 µM in data set [7] stood at 1%. Moreover, the selectivity ratio in data set [9] was 33. The inhibition in vivo at 40 mg/kg/day in the data set with Leishmania infantum [10] came to 25.9%. For the same compound, the Time on Beta-casein [13] was 5.5 nanoseconds. Further, the Cmax in data set [15] is 4.76 µM and 1540 ng/mL; in [26], 1.96 µM and 630 ng/mL. Further, the inhibition entry in the data set with Leishmania donovani [19] is “Active”. Moreover, the remaining at 5 µM in [23] was in the range of 90 to 95%. Moreover, in data set [25], the degraded at 50 min, 60 µM was determined as 80%.

For the compound `CCCCCCCCCCCCCCCCOP(=O)([O-])OCC[N+](C)(C)C` [MILTEFOSINE], the Activity result in data set [27] is reported as “Non-Toxic”; in data set [28], 5.996 g; in [30], “Non-Toxic”. The inhibition entry with Leishmania infantum [29] is “Active”.
